Test results reported in US9266900B2, “Additives for improved isohexide products” (ARCHER DANIELS MIDLAND COMPANY, priority 2012, dated 2016).
Where “and” joins values, the source holds several entries; their conditions need not be identical. Equal values may be shown once.

What was measured:
[1] = Isosorbide (100% molten) mixed with additives, heated 1-2 hours at 200 degrees Celsius, accelerated aging tests; conditions: additive screening
[2] = Distillation of crude isosorbide mixture with added antioxidant: co-distillation and initial distillate color; format: physicochemical
Method: A 500 mL boiling flask equipped with a Teflon stir bar was charged with 100 g of ion-exchanged (strong acid cation/strong base anion-exchanged), dewatered, molten isosorbide. While stirring, 40.02 mg of 2,6-di-tert-butyl-4-methoxyphenol (DTMP), previously dissolved in 2 mL of absolute ethanol, was added via pipette, indicating the DTMP concentration as 400 ppm in the matrix. The flask was then outfitted with a still head, condenser, and receiver, placed under a vacuum of <2 torr, and placed in a digitally controlled oil bath. The bath was gradually heated to 190 degrees Celsius while maintaining a vacuum. At a bath temperature of approximately 155 degrees, isosorbide began to distill (vapor temperature of 150 deg C.). Continuous distillation occurred for approximately 30 minutes. 45.6 grams of clear, colorless isosorbide was collected, whose APHA color was measured as 6. Quantitative analysis by UPLC determined the concentration of DTMP in the distilled isosorbide to be 503 ppm.
In this as in subsequent examples, a quantity of an antioxidant under evaluation was dissolved in 1-2 mL of absolute ethanol and then added via pipette to a crude isosorbide mixture which had been treated previously to remove ionic species therefrom. Amounts were set so that the concentration of the antioxidant in the crude isosorbide mixture was in the range of from 250 to 900 ppm by weight. The stabilized crude isosorbide mixtures were then distilled in turn in a short path, jacketed distillation apparatus consisting of a 250 cc 3 neck boiling flask containing a PTFE magnetic stir bar in which one neck was fitted with a rubber septum, a thermocouple extended into the mixture being distilled from a central neck, and the third neck was equipped with the short path head leading to a boiling flask receiver maintained at 80 degrees Celsius. The boiling flask was immersed in an oil bath maintained at from 185 to 195 degrees Celsius, and distillation occurred under a vacuum pressure of less than 2 torr.

[3] = Heating of isosorbide distillate in 200° C. oil bath for 1 hr under air, APHA color by UV/vis; format: physicochemical; conditions: 0.5 g diluted with 2 mL water
Method: About, an 11 gram sample of the isosorbide distillate was added to a glass tube and capped with a septum. The glass tube was then submerged in a 200° C. oil bath for 1 hr under air. Approximately 0.5 g of the heated distillate sample was subsequently diluted with 2 mL of water and analyzed by UV/vis to obtain an APHA color value. An APHA color of approximately 250 was observed, compared to an APHA value for a distillate sample absent the DTMP additive that was offscale (>500).
About an 11 gram sample of the isosorbide distillate was added to a glass tube and capped with a septum. The glass tube was then submerged in a 200° C. oil bath for 1 hr under air.

[4] = Thermal aging of 85% solution of the distillate in water at 85 deg C. up to 28 days; format: physicochemical; conditions: 85% solution
[5] = Solubility and retention of stabilizer in isosorbide product; conditions: 85% solution isosorbide product
[6] = Thermal aging of neat distillate in 85 deg C. oven under air up to 28 days; format: physicochemical
Method: The DTMP-stabilized distillate was further tested for color storage stability by thermal aging over a more extended period of time, in particular, by preparing typically five 10 mL headspace vials of each of the neat distillate and an 85% solution of the distillate in water in 0.5 gram sample portions. One vial of the set of five for the neat distillate or the 85% solution was set aside as the “time zero” data point. The time zero sample was diluted with 2 mL of water and analyzed.
For the neat distillate, the APHA color of the time zero sample was less than 20 by UV/vis. All other decomposition products were less than 5 ppm. The four other vials of the neat distillate were then placed in an 85 deg C. oven trader air, and one vial was removed at 7 days, another at 14 days, another at 21 days, and the last of the four at 28 days. Once removed from the oven, each sample was allowed to cool to room temperature and diluted with 2 mL of water. The sample was then analyzed by UV/vis, UPLC, LC-MS, and GC. After 28 days, APHA color, measured as a 20% solution, was only 28. Furfural and formic acid were measured at 18 ppm and 39 ppm, respectively.
The BBTC-stabilized distillate was further tested for color storage stability by thermal aging over a more extended period of time, in particular, by preparing typically five 10 mL headspace vials of each of the neat distillate and an 85% solution of the distillate in water in 0.5 gram sample portions. One vial of the set of five for the neat distillate or the 85% solution was set aside as the “time zero” data point. The time zero sample was diluted with 2 mL of water and analyzed.
For the neat distillate, the APHA color of the time zero sample was less than 1 by UV/vis. Formic acid concentration in the time zero sample was less than 5 ppm, while furfural concentration was less than 1 ppm. The four other vials of the neat distillate were then placed in an 85 deg C. oven under air, and one vial was removed at 7 days, another at 14 days, another at 21 days, and the last of the four at 28 days. Once removed from the oven, each sample was allowed to cool to room temperature and diluted with 2 mL of water. Each sample was then analyzed by UV/vis, UPLC, LC-MS, and GC. After 28 days, APHA color, measured as a 20% solution, was 191. Furfural and formic acid were measured at 298 ppm and 6,102 ppm, respectively.

Structure (SMILES)	effect on color stability of isosorbide [1]	antioxidant recovered in the distillate, yield ([2]; co-distilled with isosorbide)	initial APHA color of the neat distillate ([2]; neat distillate after distillation, ASTM D1209)	additive distilled with the isosorbide / recovered in the distillate by UPLC analysis ([2]; short path distillation, oil bath 185 to 195 degrees Celsius, less than 2 torr)	APHA color after heating [3]	formic acid concentration, final sample ([4]; 85 deg C., 28 days)	APHA color, day 28 ([4]; 85 deg C., day 28, final diluted (20%))	formic acid concentration, initially ([4]; initial)	APHA color, time zero ([4]; time zero, diluted (20%))	solubility in 85% solution product [5]	color stability criteria after accelerated aging ([6]; 85 degrees Celsius, 4 weeks, APHA less than 200 neat distillate and less than 250 for 85% solution)	formic acid after 28 days ([6]; neat distillate, 85 deg C., 28 days)	APHA color after 28 days ([6]; neat distillate, 85 deg C., air, 28 days, measured as a 20% solution)	formic acid concentration, time zero ([6]; neat distillate, time zero)	APHA color, time zero ([6]; neat distillate, time zero, UV/vis)
C1OC1COC1COC2C(OCC3CO3)COC12 (stereo not drawn) [isosorbide diglycidol ether]	ineffective in the absence of an antioxidant														
COc1ccc(O)c(C(C)(C)C)c1 [BHA, butylated hydroxyanisole]		63%	14.1 and 14	About 63%	222	44 ppm	30	less than 5 ppm	less than 1	continued good solubility	criteria were met	21 ppm	40	less than 5 ppm	less than 15
